Results reported in patent publication US20250051344A1, “BIFUNCTIONAL SELECTIVE DEGRADERS OF SMARCA2 AND THERAPEUTIC USES THEREOF” (Nurix Therapeutics, Inc., priority 2023, published 2025).

Columns and labels:
SMARCA2 = target: T1, SMARCA2 (Homo sapiens, UniProt P51531); test: SMARCA2 Cellular Degradation Assay (Western blot analysis on Jess platform); type: cell-based; details: for DC50 / Dmax: cellular degradation; for Fold Selectivity SMARCA4/2: ratio DC50 SMARCA4 / DC50 SMARCA2
T1 construct: endogenous in cells
Summary of the method: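 Lysates of cells extracted from tumors were prepared in supplemented RIPA buffer, and 5 μg total protein per capillary was analysed by capillary Western (Jess) with anti-SMARCA2 and anti-β-actin antibodies. SMARCA2 electropherogram area was background-subtracted, normalized to actin, and expressed as percent remaining versus vehicle control.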

SMARCA4 = target: T2, SMARCA4 (Homo sapiens, UniProt P51532); test: Cellular degradation assay, SMARCA4 (Table 1); type: cell-based
T2 construct: endogenous in cells
T2 sequence (P51532 whole entry, species assumed): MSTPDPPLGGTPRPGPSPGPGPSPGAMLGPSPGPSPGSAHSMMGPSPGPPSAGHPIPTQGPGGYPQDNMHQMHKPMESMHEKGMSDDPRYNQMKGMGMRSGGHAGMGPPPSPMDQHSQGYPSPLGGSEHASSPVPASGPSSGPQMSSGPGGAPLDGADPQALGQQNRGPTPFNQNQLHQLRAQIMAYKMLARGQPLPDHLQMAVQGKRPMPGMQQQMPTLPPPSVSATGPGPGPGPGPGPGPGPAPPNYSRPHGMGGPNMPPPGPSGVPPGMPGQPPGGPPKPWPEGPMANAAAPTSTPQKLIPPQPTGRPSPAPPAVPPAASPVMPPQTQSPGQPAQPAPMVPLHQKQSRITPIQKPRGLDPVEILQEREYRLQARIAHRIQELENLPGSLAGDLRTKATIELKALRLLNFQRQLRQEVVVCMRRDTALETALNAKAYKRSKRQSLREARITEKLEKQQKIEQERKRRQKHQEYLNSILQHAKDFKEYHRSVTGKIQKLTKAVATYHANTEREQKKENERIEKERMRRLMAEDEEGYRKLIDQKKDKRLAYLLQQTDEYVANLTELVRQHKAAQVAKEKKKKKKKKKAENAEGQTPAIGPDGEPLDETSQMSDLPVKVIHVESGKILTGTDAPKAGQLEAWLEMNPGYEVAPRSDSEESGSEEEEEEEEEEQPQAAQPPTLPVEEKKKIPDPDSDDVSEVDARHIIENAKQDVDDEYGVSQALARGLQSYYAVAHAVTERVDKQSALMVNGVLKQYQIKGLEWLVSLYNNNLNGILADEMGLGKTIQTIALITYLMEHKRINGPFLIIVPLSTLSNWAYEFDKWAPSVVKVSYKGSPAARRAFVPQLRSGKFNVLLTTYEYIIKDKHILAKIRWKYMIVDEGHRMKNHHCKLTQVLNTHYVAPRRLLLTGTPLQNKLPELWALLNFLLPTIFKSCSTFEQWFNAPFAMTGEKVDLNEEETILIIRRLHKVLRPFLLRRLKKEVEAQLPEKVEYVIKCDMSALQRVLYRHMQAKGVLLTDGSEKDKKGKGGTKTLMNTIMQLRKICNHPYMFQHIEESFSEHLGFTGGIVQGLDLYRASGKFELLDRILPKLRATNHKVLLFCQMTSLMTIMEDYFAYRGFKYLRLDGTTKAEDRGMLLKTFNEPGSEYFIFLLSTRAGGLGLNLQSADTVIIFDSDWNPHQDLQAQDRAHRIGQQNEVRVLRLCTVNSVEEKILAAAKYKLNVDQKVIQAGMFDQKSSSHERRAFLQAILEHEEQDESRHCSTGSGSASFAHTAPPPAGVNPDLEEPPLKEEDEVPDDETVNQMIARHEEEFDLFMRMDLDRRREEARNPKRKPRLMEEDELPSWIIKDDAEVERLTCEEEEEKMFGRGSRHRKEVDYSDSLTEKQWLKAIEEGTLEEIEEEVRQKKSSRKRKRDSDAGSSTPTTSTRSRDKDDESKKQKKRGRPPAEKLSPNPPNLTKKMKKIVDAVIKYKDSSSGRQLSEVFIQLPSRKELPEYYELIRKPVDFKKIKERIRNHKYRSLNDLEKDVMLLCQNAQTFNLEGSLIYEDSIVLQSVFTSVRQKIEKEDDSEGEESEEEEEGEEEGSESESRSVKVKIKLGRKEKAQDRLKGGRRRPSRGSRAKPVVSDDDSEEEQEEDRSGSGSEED

T1 sequence (P51531 whole entry, species assumed): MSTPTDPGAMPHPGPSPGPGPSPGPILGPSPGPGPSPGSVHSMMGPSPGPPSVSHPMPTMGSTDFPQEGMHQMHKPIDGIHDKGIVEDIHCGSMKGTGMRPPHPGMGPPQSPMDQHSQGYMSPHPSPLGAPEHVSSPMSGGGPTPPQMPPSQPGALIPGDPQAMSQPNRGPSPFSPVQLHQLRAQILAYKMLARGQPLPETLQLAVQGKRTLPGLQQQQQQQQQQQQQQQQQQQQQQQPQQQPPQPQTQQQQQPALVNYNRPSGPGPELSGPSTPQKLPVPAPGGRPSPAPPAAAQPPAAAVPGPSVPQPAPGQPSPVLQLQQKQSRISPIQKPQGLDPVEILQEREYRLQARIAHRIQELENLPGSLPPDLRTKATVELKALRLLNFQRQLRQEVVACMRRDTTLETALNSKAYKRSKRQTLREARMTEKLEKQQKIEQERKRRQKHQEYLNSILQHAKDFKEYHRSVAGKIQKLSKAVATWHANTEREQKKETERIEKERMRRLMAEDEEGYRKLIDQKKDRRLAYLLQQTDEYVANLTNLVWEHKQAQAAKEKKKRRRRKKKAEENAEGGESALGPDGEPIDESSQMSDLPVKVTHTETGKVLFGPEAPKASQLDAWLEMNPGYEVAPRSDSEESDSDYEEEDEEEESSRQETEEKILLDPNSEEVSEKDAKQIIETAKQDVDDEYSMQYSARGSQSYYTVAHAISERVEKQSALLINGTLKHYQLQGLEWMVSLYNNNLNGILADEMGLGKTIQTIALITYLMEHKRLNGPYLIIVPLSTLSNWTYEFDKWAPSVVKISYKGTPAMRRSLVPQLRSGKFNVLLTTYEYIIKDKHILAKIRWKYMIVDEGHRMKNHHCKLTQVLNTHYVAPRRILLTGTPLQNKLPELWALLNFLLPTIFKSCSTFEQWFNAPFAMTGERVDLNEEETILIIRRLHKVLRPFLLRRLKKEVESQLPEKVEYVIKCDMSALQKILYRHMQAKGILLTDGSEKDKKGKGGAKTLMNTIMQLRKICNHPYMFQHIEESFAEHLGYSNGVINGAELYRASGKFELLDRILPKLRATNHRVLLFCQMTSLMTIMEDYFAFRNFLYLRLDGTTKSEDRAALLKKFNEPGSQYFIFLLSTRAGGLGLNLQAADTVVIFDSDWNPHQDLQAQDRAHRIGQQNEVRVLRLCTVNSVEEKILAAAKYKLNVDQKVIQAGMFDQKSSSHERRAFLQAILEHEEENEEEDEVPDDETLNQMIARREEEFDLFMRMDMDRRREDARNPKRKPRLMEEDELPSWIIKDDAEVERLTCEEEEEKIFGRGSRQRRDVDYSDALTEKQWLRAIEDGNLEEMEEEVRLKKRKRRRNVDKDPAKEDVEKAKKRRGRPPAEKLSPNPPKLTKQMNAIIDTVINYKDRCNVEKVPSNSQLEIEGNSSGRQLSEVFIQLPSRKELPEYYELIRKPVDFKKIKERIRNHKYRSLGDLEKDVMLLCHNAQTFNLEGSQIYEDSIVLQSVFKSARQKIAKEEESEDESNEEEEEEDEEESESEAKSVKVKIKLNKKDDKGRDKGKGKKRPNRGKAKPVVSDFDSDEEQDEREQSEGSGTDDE

Row | DC50 (SMARCA2) | Dmax (SMARCA2) | Fold Selectivity SMARCA4/2 (SMARCA2) | DC50 (SMARCA4) | Dmax (SMARCA4) | SMILES
1 | 8.85 nM | 84% | 4 | 35.5 nM | 76.5% | O=C1CC[C@H](c2ccc(N3CCC(CCN4CCC(S(=O)(=O)NCC5(c6ccccc6)CCN(c6cnnc(-c7ccccc7O)c6)CC5)CC4)CC3)cc2)C(=O)N1 (racemic) [Example 118, rac-1-(2-(1-(4-(2,6-dioxopiperidin-3-yl)phenyl)piperidin-4-yl)ethyl)-n-((1-(6-(2-hydroxyphenyl)pyridazin-4-yl)-4-phenylpiperidin-4-yl)methyl)piperidine-4-sulfonamide]
2 | 1.71 nM | 90.6% | 143 | 245 nM | 57.8% | O=C1CCC(c2c(F)cc(N3CCC(CN4CC[C@@H](NC(=O)C5(c6ccccc6)CCN(c6cnnc(-c7ccccc7O)c6)CC5)CC45CCC5)CC3)cc2F)C(=O)N1 (mixture of isomers) [Example 188, N-[(8RS&)-5-[(1-{4-[(3RS)-2,6-dioxopiperidin-3-yl]-3,5-difluorophenyl}piperidin-4-yl)methyl]-5-azaspiro[3.5]nonan-8-yl]-1-[6-(2-hydroxyphenyl)pyridazin-4-yl]-4-phenylpiperidine-4-carboxamide]
3 | 7.76 nM | 78.4% | 1289 | – | 20.2% | Cc1cc(C2(C(=O)N(C)C3CCN(CCC4CCN(c5ccc(C6CCC(=O)NC6=O)cc5)CC4)CC3)CCN(c3cnnc(-c4ccccc4O)c3)CC2)on1 (racemic) [Example 88, rac-N-{1-[2-(1-{4-[(3R)-2,6-dioxopiperidin-3-yl]phenyl}piperidin-4-yl)ethyl]piperidin-4-yl}-1-[6-(2-hydroxyphenyl)pyridazin-4-yl]-N-methyl-4-(3-methyl-1,2-oxazol-5-yl)piperidine-4-carboxamide]
4 | – | 53.5% | 1 | – | 22.1% | C[C@H](Oc1ccc(C2CCC(=O)NC2=O)cc1)C1CCN(C(=O)C2(c3ccccc3)CCN(c3cnnc(-c4ccccc4O)c3)CC2)CC1 (mixture of isomers) [Example 2, (3RS)-3-{4-[(1S)-1-(1-{1-[6-(2-hydroxyphenyl)pyridazin-4-yl]-4-phenylpiperidine-4-carbonyl}piperidin-4-yl)ethoxy]phenyl}piperidine-2,6-dione]
5 | 8.07 nM | 81.6% | 1239 | – | 32.2% | COC1(C(=O)N(C)C2CCN(CCC3CCN(c4ccc(C5CCC(=O)NC5=O)c(F)c4)CC3)CC2)CCN(c2cnnc(-c3ccccc3O)c2)CC1 (racemic) [Example 71, rac-N-(1-(2-(1-(4-(2,6-dioxopiperidin-3-yl)-3-fluorophenyl)piperidin-4-yl)ethyl)piperidin-4-yl)-1-(6-(2-hydroxyphenyl)pyridazin-4-yl)-4-methoxy-n-methylpiperidine-4-carboxamide]
6 | 4.19 nM | 92% | 5 | 20.8 nM | 87.7% | CN(C(=O)C1(Oc2ccccc2Cl)CCN(c2cnnc(-c3ccccc3O)c2)CC1)C1CCN(C(=O)CN2CCC(c3ccc([C@@H]4CCC(=O)NC4=O)cc3)CC2)CC1 (racemic) [Example 112]
7 | 7.48 nM | 82.6% | 671.32 | 5020 nM | 56.1% | O=C1CC[C@H](c2ccc(N3CCC(CN4CC5(CCN(C(=O)C6(c7ccccc7)CCN(c7cnnc(-c8ccccc8O)c7)CC6)C5)C4)CC3)cc2)C(=O)N1 [Example 16, (3R)-3-(4-{4-[(6-{1-[6-(2-hydroxyphenyl)pyridazin-4-yl]-4-phenylpiperidine-4-carbonyl}-2,6-diazaspiro[3.4]octan-2-yl)methyl]piperidin-1-yl}phenyl)piperidine-2,6-dione]
8 | 19.6 nM | 72.3% | 16 | 317 nM | 42.3% | O=C1CCC(c2ccc(N3CC[C@H](CCN4CC5(C4)CN(C(=O)C4(c6ccccc6)CCN(c6cnnc(-c7ccccc7O)c6)CC4)C5)C3)nc2)C(=O)N1 (mixture of isomers) [Example 181, (3RS)-3-{6-[(3S)-3-[2-(6-{1-[6-(2-hydroxyphenyl)pyridazin-4-yl]-4-phenylpiperidine-4-carbonyl}-2,6-diazaspiro[3.3]heptan-2-yl)ethyl]pyrrolidin-1-yl]pyridin-3-yl}piperidine-2,6-dione]
9 | 3.79 nM | 86.9% | 2641 | – | 31.2% | CN(C(=O)C1(c2ccncc2)CCN(c2cnnc(-c3ccccc3O)c2)CC1)C1CCN(CCC2CCN(c3ccc([C@H]4CCC(=O)NC4=O)cc3)CC2)CC1 [Example 140, N-{1-[2-(1-{4-[(3R)-2,6-dioxopiperidin-3-yl]phenyl}piperidin-4-yl)ethyl]piperidin-4-yl}-1-[6-(2-hydroxyphenyl)pyridazin-4-yl]-N-methyl-4-(pyridin-4-yl)piperidine-4-carboxamide]
10 | 10.7 nM | 77.6% | 937 | – | 45.2% | CN(C(=O)C1(OC2CC2)CCN(c2cnnc(-c3ccccc3O)c2)CC1)C1CCN(C(=O)CN2CCC(c3ccc([C@@H]4CCC(=O)NC4=O)cc3)CC2)CC1 (racemic) [Example 115, rac-4-cyclopropoxy-n-(1-(2-(4-(4-(2,6-dioxopiperidin-3-yl)phenyl)piperidin-1-yl)acetyl)piperidin-4-yl)-1-(6-(2-hydroxyphenyl)pyridazin-4-yl)-n-methylpiperidine-4-carboxamide]
11 | 62.7 nM | 56.5% | 159.52 | – | 31.7% | O=C1CC[C@H](c2ccc(N3CCC(CN4CC5(C4)CN(C(=O)C4(C6CC6)CCN(c6cnnc(-c7ccccc7O)c6)CC4)C5)CC3)cc2)C(=O)N1 [Example 24, (3R)-3-(4-{4-[(6-{4-cyclopropyl-1-[6-(2-hydroxyphenyl)pyridazin-4-yl]piperidine-4-carbonyl}-2,6-diazaspiro[3.3]heptan-2-yl)methyl]piperidin-1-yl}phenyl)piperidine-2,6-dione]
12 | 24.5 nM | 69.9% | 3 | 84.8 nM | 60% | CN(CC1(c2ccccc2)CCN(c2cnnc(-c3ccccc3O)c2)CC1)C1CCN(C(=O)C2CCN(c3ccc(C4CCC(=O)NC4=O)cc3)CC2)CC1 (racemic) [Example 142, rac-(r)-3-(4-(4-(4-(((1-(6-(2-hydroxyphenyl)pyridazin-4-yl)-4-phenylpiperidin-4-yl)methyl)(methyl)amino)piperidine-1-carbonyl)piperidin-1-yl)phenyl)piperidine-2,6-dione]
13 | 14.2 nM | 60% | 705 | – | 21.9% | O=C1CCC(c2ccc(N3CCC(CCN4CC5(C4)CN(C(=O)C4(c6cc7ccccn7n6)CCN(c6cnnc(-c7ccccc7O)c6)CC4)C5)CC3)cc2)C(=O)N1 (racemic) [Example 80, rac-(3R)-3-(4-{4-[2-(6-{1-[6-(2-hydroxyphenyl)pyridazin-4-yl]-4-{pyrazolo[1,5-a]pyridin-2-yl}piperidine-4-carbonyl}-2,6-diazaspiro[3.3]heptan-2-yl)ethyl]piperidin-1-yl}phenyl)piperidine-2,6-dione]
14 | 22.3 nM | 76.8% | 449 | – | 53% | CC1(CN2CCC(c3ccc(C4CCC(=O)NC4=O)cc3)CC2)CCN(C(=O)C2(c3ccccc3)CCN(c3cnnc(-c4ccccc4O)c3)CC2)C1 (racemic) [Example 176, rac-(3R)-3-(4-{1-[(1-{1-[6-(2-hydroxyphenyl)pyridazin-4-yl]-4-phenylpiperidine-4-carbonyl}-3-methylpyrrolidin-3-yl)methyl]piperidin-4-yl}phenyl)piperidine-2,6-dione]
15 | – | 22.2% | 1 | – | 15.2% | O=C1CCC(c2ccc(OCC3CCN(C(=O)C4CCN(C(=O)C5(c6ccccc6)CCN(c6cnnc(-c7ccccc7O)c6)CC5)CC4)CC3)cc2)C(=O)N1 (racemic) [Example 14, rac-(3R)-3-(4-{[1-(1-{1-[6-(2-hydroxyphenyl)pyridazin-4-yl]-4-phenylpiperidine-4-carbonyl}piperidine-4-carbonyl)piperidin-4-yl]methoxy}phenyl)piperidine-2,6-dione]
16 | 19.5 nM | 71% | 6 | 114 nM | 60.2% | O=C1CC[C@@H](c2cccc(N3CCC(CN4CCC5(CC4)CN(C(=O)C4(c6ccccc6)CCN(c6cnnc(-c7ccccc7O)c6)CC4)C5)CC3)c2)C(=O)N1 (racemic) [Example 101, rac-®-3-(3-(4-((2-(1-(6-(2-hydroxyphenyl)pyridazin-4-yl)-4-phenylpiperidine-4-carbonyl)-2,7-diazaspiro[3.5]nonan-7-yl)methyl)piperidin-1-yl)phenyl)piperidine-2,6-dione]
17 | – | 32% | 1 | – | 19.3% | CC1(C(=O)N2CCN(c3ccc(C4CCC(=O)NC4=O)cc3)CC2)CCN(C(=O)C2(c3ccccc3)CCN(c3cnnc(-c4ccccc4O)c3)CC2)CC1 (racemic) [Example 21, rac-(3R)-3-{4-[4-(1-{1-[6-(2-hydroxyphenyl)pyridazin-4-yl]-4-phenylpiperidine-4-carbonyl}-4-methylpiperidine-4-carbonyl)piperazin-1-yl]phenyl}piperidine-2,6-dione]
18 | 4.81 nM | 80.8% | 19 | 92.5 nM | 50.2% | CC(C)c1cc(C2(C(=O)N3CC4(CN(CC5CCN(c6ccc(C7CCC(=O)NC7=O)cc6)CC5)C4)C3)CCN(c3cnnc(-c4ccccc4O)c3)CC2)no1 (racemic) [Example 92, rac-(3R)-3-(4-{4-[(6-{1-[6-(2-hydroxyphenyl)pyridazin-4-yl]-4-[5-(propan-2-yl)-1,2-oxazol-3-yl]piperidine-4-carbonyl}-2,6-diazaspiro[3.3]heptan-2-yl)methyl]piperidin-1-yl}phenyl)piperidine-2,6-dione]
